Data on 7 molecules can be found in patent US8609698B2, “Substituted dipyridyl-dihydropyrazolones and use thereof” (Bayer Intellectual Property GmbH, priority 2006, dated 2013).

Structures can show the parent of a compound that is named as a salt.

For the test, the target named is HIF prolyl hydroxylase. The test can be described thus: Inhibition of the activity of HIF prolyl hydroxylase (VBC complex binding test). The class given is biochemical. From the text:
1. In Vitro Tests for Determination of the Activity and Selectivity of HIF Prolyl 4-Hydroxylase Inhibitors 1.a) Inhibition of the Activity of HIF Prolyl Hydroxylase:
Hydroxylated HIF bonds specifically to the von Hippel-Lindau protein-elongin B-elongin C complex (VBC complex). This interaction occurs only if HIF is hydroxylated on a conserved prolyl radical. It is the basis for the biochemical determination of HIF prolyl hydroxylase activity.
A clear 96-well microtiter plate coated with NeutrAvidin HBC (Pierce) is incubated with blocker casein for 30 minutes. The plate is then washed three times with 200 μl each time of wash buffer (50 mM Tris, pH 7.5, 100 mM NaCl, 10% (v/v) blocker casein, 0.05% (v/v) Tween 20) per well. […] This peptide serves as a substrate for the prolyl hydroxylation and is bonded to the microtiter plate. After incubation for 60 minutes, the plate is washed three times with wash buffer, incubated with 1 mM biotin in blocker casein for 30 minutes and then washed again three times with wash buffer.
To carry out the prolyl hydroxylase reaction, the peptide substrate bonded to the plate is incubated with a cell lysate containing prolyl hydroxylase for 1 to 60 minutes. The reaction takes place in 100 μl reaction buffer (20 mM Tris, pH 7.5, 5 mM KCl, 1.5 mM MgCl2, 1 μM-1 mM 2-oxoglutarate, 10 μM FeSO4, 2 mM ascorbate) at room temperature. The reaction mixture moreover contains various concentrations of the prolyl hydroxylase inhibitor to be tested. The test substance is preferably, but not exclusively, employed at concentrations of between 1 nM and 100 μM. The reaction is stopped by washing the plate three times with wash buffer.
For quantitative determination of the prolyl hydroxylation, a fusion protein which contains both thioredoxin from E. coli and the VBC complex in 80 μl bonding buffer (50 mM Tris, pH 7.5, 120 mM NaCl) is added. After 15 minutes, 10 μl of a solution of polyclonal anti-thioredoxin antibodies from rabbit in bonding buffer are added. After a further 30 minutes, 10 μl of a solution of anti-rabbit immunoglobulin coupled to horseradish peroxidase in bonding buffer are added. After incubation at room temperature for 30 minutes, the plate is washed three times with wash buffer in order to remove non-bonded VBC complex and antibodies. To determine the amount of bonded VBC complex, the plate is incubated with TMB for 15 minutes. The color reaction is ended by addition of 100 μl 1 M sulfuric acid. The amount of bonded VBC complex is determined by measurement of the optical density at 450 nm. It is proportional to the amount of hydroxylated proline in the peptide substrate.
Alternatively, a VBC complex coupled to europium (Perkin Elmer) can be used for detection of the prolyl hydroxylation. In this case, the amount of bonded VBC complex is determined by the fluorescence with respect to time. The use of VBC complex labeled with [^35S]-methionine is moreover possible. For this, the radioactively labeled VBC complex can be prepared by in vitro transcription-translation in reticulocyte lysate.
The term IC50 denotes the concentration that gives 50% inhibition. `COCCNCc1ccc(-n2[nH]cc(-c3cccnc3)c2=O)nc1` [Example 5, 2-(5-{[(2-Methoxyethyl)amino]methyl}pyridin-2-yl)-4-pyridin-3-yl-1,2-dihydro-3H-pyrazol-3-one hydrochloride]: the IC50 is 6300 nM. For `Cc1ccnc(-n2[nH]cc(-c3cncc(C#N)c3)c2=O)c1` [Example 8, 5-[2-(4-Methylpyridin-2-yl)-3-oxo-2,3-dihydro-1H-pyrazol-4-yl]pyridine-3-carbonitrile hydrochloride] the value was 5200 nM.

Molecule `O=C(O)c1ccc(-n2[nH]cc(-c3cncc(Br)c3)c2=O)nc1` [Example 10, 6-[4-(5-Bromopyridin-3-yl)-5-oxo-2,5-dihydro-H-pyrazol-1-yl]pyridine-3-carboxylic acid hydrochloride] displayed an IC50 of 260 nM.

`CC(C)(C)NC(=O)c1ccc(-n2[nH]cc(-c3cccnc3)c2=O)nc1` [Example 18, N-tert-Butyl-6-(5-oxo-4-pyridin-3-yl-2,5-dihydro-1H-pyrazol-1-yl)pyridine-3-carboxamide hydrochloride] displayed an IC50 of 910 nM. This IC50 lies about 3.5-fold higher than the previous one. For `O=c1c(-c2cccnc2)c[nH]n1-c1ccc(Cn2cccc2)cn1` [Example 22, 4-Pyridin-3-yl-2-[5-(1H-pyrrol-1-ylmethyl)pyridin-2-yl]-1,2-dihydro-3H-pyrazol-3-one hydrochloride] the value was 3240 nM.

As to `O=C(NCc1ccnc(-n2[nH]cc(-c3cccnc3)c2=O)c1)Nc1c(Cl)cccc1Cl` [Example 65], the IC50 was found to be 900 nM. Under `Cc1ccccc1NC(=O)OCc1ccc(-n2[nH]cc(-c3cccnc3)c2=O)nc1` [Example 80] stands 1600 nM.
